According to PubChem BioAssay AID298 (DTP/NCI, 2004):
Several values for one entry are separate records, joined by “and”; a condition that tells them apart may be missing. Equal values may be shown once. Records with an inconclusive call do not appear.

System: MX-1 breast xenograft, intrarenal, nude mice, tumor weight
Assay: NCI In Vivo Anticancer Drug Screen. Data for tumor model Human Mammary Carcinoma MX-1 Xenograft (intrarenal inoculation) in NU/NU BALB/C (nude) mice
Details: endpoint: mean tumor weight change, higher = larger tumour
Method in brief: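 Antitumor activity is expressed as a T/C ratio. The treated group's tumor size or survival is compared against the vehicle-treated control group in mice bearing transplanted tumors.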

[1] = dose: 100.0 mg/kg/injection, schedule: Q04DX003 (ip), vehicle: Klucel (hydroxypropylcellulose) (HPC)
[2] = dose: 200.0 mg/kg/injection, schedule: Q04DX003 (ip), vehicle: Klucel (hydroxypropylcellulose) (HPC)
[3] = dose: 37.5 mg/kg/injection, schedule: Q04DX003 (ip), vehicle: water

For `CCCn1c(SC)nc(COC(=O)NC)c1COC(=O)NC`, the T/C (dose: 30.0 mg/kg/injection, schedule: Q04DX003 (ip), vehicle: saline) was 62 % of control, the T/C (dose: 60.0 mg/kg/injection, schedule: Q04DX003 (ip), vehicle: saline) was 38 % of control and the T/C (dose: 120.0 mg/kg/injection, schedule: Q04DX003 (ip), vehicle: saline) was 7 % of control. The T/C (dose: 240.0 mg/kg/injection, schedule: Q04DX003 (ip), vehicle: saline) was -100 % of control.

`O=C1[C@@H]2C3C=CC([C@H]4C(=O)N(CO)C(=O)[C@@H]34)[C@@H]2C(=O)N1CO` was tested, and the T/C [1] was 78 % of control and the T/C [2] was 52 % of control.

For `CS(=O)(=O)OCCN(CCOS(C)(=O)=O)c1ccc(C=Nc2ccc(-c3csc(COc4ccccc4)n3)cc2)cc1`, the T/C (dose: 50.0 mg/kg/injection, schedule: Q01DX010 (sc), vehicle: Klucel (hydroxypropylcellulose) (HPC)) was 13 % of control, the T/C (dose: 100.0 mg/kg/injection, schedule: Q01DX010 (sc), vehicle: Klucel (hydroxypropylcellulose) (HPC)) was -6 % of control and the T/C [1] was 24 % of control. For the same compound, the T/C (dose: 100.0 mg/kg/injection, schedule: Q04DX003 (sc), vehicle: Klucel (hydroxypropylcellulose) (HPC)) was 32 % of control, the T/C (dose: 200.0 mg/kg/injection, schedule: Q01DX010 (sc), vehicle: Klucel (hydroxypropylcellulose) (HPC)) was -61 % of control and the T/C [2] was 3 % of control. The T/C (dose: 200.0 mg/kg/injection, schedule: Q04DX003 (sc), vehicle: Klucel (hydroxypropylcellulose) (HPC)) was 18 % of control.

`CCCCOCN(COCCCC)C12CC3CC(CC(C3)C1)C2` was tested, and the T/C (dose: 100.0 mg/kg/injection, schedule: Q04DX003 (sc), vehicle: saline with Tween-80) was 48 % of control, the T/C (dose: 200.0 mg/kg/injection, schedule: Q04DX003 (sc), vehicle: saline with Tween-80) was 45 % of control and the T/C (dose: 400.0 mg/kg/injection, schedule: Q04DX003 (sc), vehicle: saline with Tween-80) was 76 % of control.

In the case of `O=C(Oc1ccccc1)c1cc(O)c(O)c(O)c1`, the T/C (dose: 150.0 mg/kg/injection, schedule: Q04DX003 (ip), vehicle: saline) is reported as 101 % of control and the T/C (dose: 300.0 mg/kg/injection, schedule: Q04DX003 (ip), vehicle: saline) is reported as 55 % of control.

`O=C(Nc1cc(Cl)ccc1C(=O)O)c1cccc(C[n+]2ccccc2)c1` was tested, and the T/C (dose: 150.0 mg/kg/injection, schedule: Q04DX003 (ip), vehicle: saline with Tween-80) was 109 % of control, the T/C (dose: 300.0 mg/kg/injection, schedule: Q04DX003 (ip), vehicle: saline with Tween-80) was 109 % of control and the T/C (dose: 600.0 mg/kg/injection, schedule: Q04DX003 (ip), vehicle: saline with Tween-80) was 82 % of control.

In the case of `CN(Cc1cnc2nc(N)nc(N)c2n1)c1ccc(C(=O)NC(CCC(=O)OCc2cc3c(cc2Cl)OCO3)C(=O)OCc2cc3c(cc2Cl)OCO3)cc1` (stereo unspecified), the T/C (dose: 7.5 mg/kg/injection, schedule: Q04DX003 (ip), vehicle: saline with Tween-80) is reported as 75 % of control.

`C/C(=N\NC(=S)N1CCN(c2ccccn2)CC1)c1ccccn1` was tested, and the T/C (dose: 75.0 mg/kg/injection, schedule: Q04DX003 (sc), vehicle: water) was 104 % of control.

`O=C(O)CCCc1ccc(N(CCCl)CCCl)cc1` was tested, and the T/C (dose: 12.0 mg/kg/injection, schedule: Q04DX003 (ip), vehicle: Klucel (hydroxypropylcellulose) (HPC)) was 1 % of control and 4 % of control, the T/C (dose: 18.0 mg/kg/injection, schedule: Q04DX003 (ip), vehicle: Klucel (hydroxypropylcellulose) (HPC)) was 4 % of control and the T/C (dose: 27.0 mg/kg/injection, schedule: Q04DX003 (ip), vehicle: Klucel (hydroxypropylcellulose) (HPC)) was -55 % of control.

In the case of `CC1OC(O[C@H]2/C=C/C=C/C=C/C=C/C=C/C=C/C=C/[C@H](C)[C@@H](O)[C@@H](C)[C@H](C)OC(=O)C[C@H](O)C[C@H](O)CC[C@@H](O)[C@H](O)C[C@H](O)C[C@]3(O)C[C@H](O)[C@@H](C(=O)O)[C@H](C2)O3)C(O)C(N)C1O` (stereo partly specified), the T/C (dose: 12.5 mg/kg/injection, schedule: Q04DX003 (ip), vehicle: suspension in saline) is reported as 61 % of control, the T/C (dose: 25.0 mg/kg/injection, schedule: Q04DX003 (ip), vehicle: suspension in saline) is reported as 57 % of control and the T/C (dose: 50.0 mg/kg/injection, schedule: Q04DX003 (ip), vehicle: suspension in saline) is reported as 77 % of control. The T/C (dose: 100.0 mg/kg/injection, schedule: Q04DX003 (ip), vehicle: suspension in saline) was 84 % of control and 89 % of control, the T/C (dose: 200.0 mg/kg/injection, schedule: Q04DX003 (ip), vehicle: suspension in saline) was 73 % of control and the T/C (dose: 400.0 mg/kg/injection, schedule: Q04DX003 (ip), vehicle: suspension in saline) was 79 % of control.

For `CC1=CCCC2C1(C)CCC(C)C2(C)Cc1cc(O)ccc1O` (stereo unspecified), the T/C (dose: 12.5 mg/kg/injection, schedule: Q04DX003 (ip), vehicle: Klucel (hydroxypropylcellulose) (HPC)) was 84 % of control, the T/C (dose: 25.0 mg/kg/injection, schedule: Q04DX003 (ip), vehicle: Klucel (hydroxypropylcellulose) (HPC)) was 76 % of control and the T/C (dose: 50.0 mg/kg/injection, schedule: Q04DX003 (ip), vehicle: Klucel (hydroxypropylcellulose) (HPC)) was 86 % of control. The T/C [1] was 66 % of control.

For `COc1ccc(N=C(C)C2C(=O)c3ccccc3C2=O)cc1`, the T/C (dose: 150.0 mg/kg/injection, schedule: Q04DX003 (ip), vehicle: DMSO) was 93 % of control, the T/C (dose: 300.0 mg/kg/injection, schedule: Q04DX003 (ip), vehicle: DMSO) was 98 % of control and the T/C (dose: 600.0 mg/kg/injection, schedule: Q04DX003 (ip), vehicle: DMSO) was 110 % of control. The T/C (dose: 1200.0 mg/kg/injection, schedule: Q04DX003 (ip), vehicle: DMSO) was 105 % of control.

With `CNC(=O)ON(C(C)=O)C(=O)NC` the T/C (dose: 12.5 mg/kg/injection, schedule: Q01DX010 (ip), vehicle: saline) was 218 % of control, the T/C (dose: 25.0 mg/kg/injection, schedule: Q01DX010 (ip), vehicle: saline) was 106 % of control and the T/C (dose: 25.0 mg/kg/injection, schedule: Q01DX010 (sc), vehicle: saline) was 104 % of control. The T/C (dose: 50.0 mg/kg/injection, schedule: Q01DX010 (ip), vehicle: saline) was 72 % of control, the T/C (dose: 50.0 mg/kg/injection, schedule: Q01DX010 (sc), vehicle: saline) was 26 % of control and the T/C (dose: 100.0 mg/kg/injection, schedule: Q01DX010 (ip), vehicle: saline) was 5 % of control. For the same compound, the T/C (dose: 100.0 mg/kg/injection, schedule: Q01DX010 (sc), vehicle: saline) was -42 % of control and the T/C (dose: 200.0 mg/kg/injection, schedule: Q01DX010 (sc), vehicle: saline) was -89 % of control.

With `COc1cc2c(cc1OC)[C@@H]1C(=O)c3ccc4c(c3O[C@@H]1CO2)C[C@H](C(C)C)O4` the T/C (dose: 37.5 mg/kg/injection, schedule: Q04DX003 (ip), vehicle: Klucel (hydroxypropylcellulose) (HPC)) was 78 % of control, the T/C (dose: 75.0 mg/kg/injection, schedule: Q04DX003 (ip), vehicle: Klucel (hydroxypropylcellulose) (HPC)) was 55 % of control and the T/C (dose: 150.0 mg/kg/injection, schedule: Q04DX003 (ip), vehicle: Klucel (hydroxypropylcellulose) (HPC)) was 57 % of control.

With `COC(=O)C1C2CCCN2OC1(C)CO` (stereo unspecified) the T/C (dose: 30.0 mg/kg/injection, schedule: Q01DX001 (ip), vehicle: saline) was 224 % of control, the T/C (dose: 240.0 mg/kg/injection, schedule: Q01DX001 (ip), vehicle: saline) was 118 % of control and the T/C (dose: 480.0 mg/kg/injection, schedule: Q01DX001 (ip), vehicle: saline) was 80 % of control.

For `NCCCN=c1ccc2c3c1c(O)c1c(O)ccc(=O)c1c3[nH]n2CCNCCO`, the T/C (dose: 9.35 mg/kg/injection, schedule: Q04DX003 (ip), vehicle: water) was 19 % of control, the T/C (dose: 9.38 mg/kg/injection, schedule: Q04DX003 (ip), vehicle: water) was 11 % of control and the T/C (dose: 18.75 mg/kg/injection, schedule: Q04DX003 (ip), vehicle: water) was -33 % of control and -19 % of control and -16 % of control. The T/C [3] was -87 % of control and -83 % of control and -100 % of control.

`NC(Cc1ccccc1)C(=O)OCN1C(=O)C2C3C=CC(C2C1=O)C1C2C(=O)N(COC(=O)C(N)Cc4ccccc4)C(=O)C2C31` (stereo unspecified) was tested, and the T/C (dose: 21.6 mg/kg/injection, schedule: Q01DX009 (ip), vehicle: water) was 76 % of control, the T/C (dose: 25.0 mg/kg/injection, schedule: Q04DX003 (ip), vehicle: other) was 94 % of control and the T/C (dose: 30.9 mg/kg/injection, schedule: Q01DX009 (ip), vehicle: water) was 57 % of control. The T/C (dose: 44.1 mg/kg/injection, schedule: Q01DX009 (ip), vehicle: water) was 111 % of control, the T/C (dose: 50.0 mg/kg/injection, schedule: Q04DX003 (ip), vehicle: other) was 86 % of control and the T/C (dose: 63.0 mg/kg/injection, schedule: Q01DX009 (ip), vehicle: water) was 52 % of control. For the same compound, the T/C (dose: 90.0 mg/kg/injection, schedule: Q01DX009 (ip), vehicle: water) was 24 % of control, the T/C (dose: 100.0 mg/kg/injection, schedule: Q04DX003 (ip), vehicle: other) was 65 % of control and the T/C (dose: 200.0 mg/kg/injection, schedule: Q04DX003 (ip), vehicle: other) was 39 % of control.

`c1ccc2c3c(c4c(c2c1)CN(C1CCCCC1)CO4)OCN(C1CCCCC1)C3` was tested, and the T/C [3] was 108 % of control, the T/C (dose: 75.0 mg/kg/injection, schedule: Q04DX003 (ip), vehicle: water) was 82 % of control and 88 % of control and the T/C (dose: 150.0 mg/kg/injection, schedule: Q04DX003 (ip), vehicle: water) was 59 % of control. For the same compound, the T/C (dose: 300.0 mg/kg/injection, schedule: Q04DX003 (ip), vehicle: water) was 111 % of control.
